IC50 data for 26 molecules are collected here from patent US9896445B2, “Heterocyclic inhibitors of ERK1 and ERK2 and their use in the treatment of cancer” (Asana Biosciences, LLC, priority 2015, dated 2018).

The target of one test is T1, ERK1 (Homo sapiens, UniProt P27361).
T1 construct: purchased Jubilant Biosys
The test can be described thus: ERK1 HTRF (biochemical) assay. Particulars: HTRF. The procedure: ERK1 and ERK2 HTRF (Biochemical) Assays
These assays employed a homogeneous time resolved fluorescence (HTRF) technique. […] The plate was incubated at room temperature for 60 min with shaking. […] The IC50 values (half maximal inhibitory concentration values) were subsequently determined using a sigmoidal dose-response curve (variable slope) in GraphPad Prism® 5 software.

For a further test, the target named is T2, ERK2 (Homo sapiens, UniProt P28482).
T2 construct: purchased Jubilant Biosys
T2 sequence (P28482 whole entry): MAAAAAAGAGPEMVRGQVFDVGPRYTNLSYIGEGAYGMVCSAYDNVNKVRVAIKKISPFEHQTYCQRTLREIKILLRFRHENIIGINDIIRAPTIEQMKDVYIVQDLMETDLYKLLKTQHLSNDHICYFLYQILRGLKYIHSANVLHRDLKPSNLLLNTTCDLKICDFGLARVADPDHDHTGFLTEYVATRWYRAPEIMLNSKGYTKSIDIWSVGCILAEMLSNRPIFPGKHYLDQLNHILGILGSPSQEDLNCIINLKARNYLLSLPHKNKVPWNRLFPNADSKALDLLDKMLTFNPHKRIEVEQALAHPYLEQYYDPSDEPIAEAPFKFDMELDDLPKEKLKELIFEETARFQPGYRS
Kind of test: ERK2 HTRF (biochemical) assay. Particulars: HTRF. A digest of the protocol: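 Compounds were tested as half-log dilutions from 0.0005 to 10 uM in Tris pH 7.5/MgCl2 buffer, with a substrate mix of 1 uM biotin-MBP peptide and 24 uM ATP and an enzyme mix of 25 nM ERK2. Reaction ran 60 min at room temperature. Phospho-MBP was detected by HTRF (Eu-anti-phospho-MBP/SA-APC, 665/620 nm), and IC50 was fitted with a variable-slope sigmoidal curve.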

T1 sequence (P27361 whole entry): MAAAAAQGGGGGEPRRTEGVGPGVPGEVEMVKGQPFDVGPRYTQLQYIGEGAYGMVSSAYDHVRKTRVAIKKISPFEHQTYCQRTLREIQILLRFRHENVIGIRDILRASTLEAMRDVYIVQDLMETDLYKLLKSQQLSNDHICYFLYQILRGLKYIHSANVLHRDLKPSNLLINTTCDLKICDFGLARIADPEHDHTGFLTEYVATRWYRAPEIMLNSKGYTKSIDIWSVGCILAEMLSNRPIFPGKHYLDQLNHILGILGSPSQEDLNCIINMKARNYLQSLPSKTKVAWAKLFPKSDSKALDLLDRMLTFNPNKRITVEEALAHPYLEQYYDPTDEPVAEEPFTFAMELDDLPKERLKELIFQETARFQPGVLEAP

As for `Cc1cnc(Nc2ccc(N3CCC(N4CCNCC4)CC3)cc2)nc1-n1ccc(C(=O)NC(CO)c2ccccc2)c1` (stereo not shown) [Compound 178, N-(2-hydroxy-1-phenylethyl)-1-(5-methyl-2-((4-(4-(piperazin-1-yl)-piperidin-1-yl)-phenyl)amino)pyrimidin-4-yl)-1H-pyrrole-3-carboxamide], the IC50 at ERK1 and on ERK2 was 100 to 500 nM in each case.
As to `Cc1cnc(Nc2ccc(F)c(C(=O)N3CCN(C)CC3)c2)nc1-n1ccc(C(=O)NC(CO)c2cccc(Cl)c2)c1` (stereo not shown) [Compound 179, N-(1-(3-chlorophenyl)-2-hydroxyethyl)-1-(2-((4-fluoro-3-(4-methylpiperazine-1-carbonyl)phenyl)amino)-5-methyl-pyrimidin-4-yl)-1H-pyrrole-3-carboxamide], the IC50 against ERK1 is less than 50 nM; on ERK2, no more than 50 nM.
Taken in the same sequence, the figures for `Cc1cnc(Nc2ccccc2)cc1-n1cnc(C(=O)NC(CO)c2cccc(Cl)c2)c1` (stereo not shown) [Compound 180, N-(1-(3-chloro-phenyl)-2-hydroxyethyl)-1-(5-methyl-2-(phenyl-amino)pyridin-4-yl)-1H-imidazole-4-carboxamide] were less than 50 nM and no more than 50 nM.
The matching figures for `COc1cc(C(=O)N2CCOCC2)c(F)cc1Nc1ncc(C)c(-n2ccc(C(=O)NC(CO)c3cccc(Cl)c3)c2)n1` (stereo not shown) [Compound 181, N-(1-(3-chlorophenyl)-2-hydroxyethyl)-1-(2-((5-fluoro-2-methoxy-4-(morpholine-4-carbonyl)phenyl)amino)-5-methyl-pyrimidin-4-yl)-1H-pyrrole-3-carboxamide]: less than 50 nM and no more than 50 nM.
The matching figures for `Cc1cc(Nc2ncc(C)c(-n3ccc(C(=O)NC(CO)c4cccc(Cl)c4)c3)n2)ccc1C1CCNCC1` (stereo not shown) [Compound 182, N-(1-(3-chloro-phenyl)-2-hydroxyethyl)-1-(5-methyl-2-((3-methyl-4-(piperidin-4-yl)phenyl)-amino)pyrimidin-4-yl)-1H-pyrrole-3-carboxamide]: less than 50 nM and no more than 50 nM.
For `Cc1cn(-c2ccnc(Nc3ccccc3)c2)cc1C(=O)N[C@H](CO)c1cccc(Cl)c1` [Compound 183, (S)-N-(1-(3-chlorophenyl)-2-hydroxyethyl)-4-methyl-1-(2-(phenylamino)pyridin-4-yl)-1H-pyrrole-3-carboxamide], the IC50 against ERK1 is 50 to 100 nM; against ERK2, no more than 50 nM.
Taken in the same sequence, the figures for `COc1ccc(Nc2ncc(C)c(-n3ccc(C(=O)NC(CO)c4cccc(Cl)c4)c3)n2)cc1OCCCN(C)C` (stereo not shown) [Compound 184, N-(1-(3-chloro-phenyl)-2-hydroxy-ethyl)-1-(2-((3-(3-(dimethylamino)propoxy)-4-methoxy-phenyl)amino)-5-methylpyrimidin-4-yl)-1H-pyrrole-3-carboxamide] were less than 50 nM and no more than 50 nM.
Taken in the same sequence, the figures for `Cc1cnc(Nc2ccc3c(c2)OCC3)nc1-n1ccc(C(=O)NC(CO)c2ccccc2)c1` (stereo not shown) [Compound 185] were less than 50 nM and no more than 50 nM.
`Cc1cnc(Nc2ccc3c(c2)OCCC3)nc1-n1ccc(C(=O)NC(CO)c2ccccc2)c1` (stereo not shown) [Compound 186, 1-(2-(chroman-7-ylamino)-5-methyl-pyrimidin-4-yl)-N-(2-hydroxy-1-phenylethyl)-1H-pyrrole-3-carboxamide]: the IC50 is less than 50 nM on ERK1 and no more than 50 nM against ERK2.
The matching figures for `Cc1cccc(C(CO)NC(=O)c2ccn(-c3nc(N[C@H]4CCOC4)ncc3C)c2)c1` (stereo partly drawn) [Compound 187, N-(2-hydroxy-1-(m-tolyl)ethyl)-1-(5-methyl-2-(((S)-tetrahydrofuran-3-yl)amino)pyrimidin-4-yl)-1H-pyrrole-3-carboxamide]: less than 50 nM and no more than 50 nM.
As to `O=C(N[C@H](CO)c1cccc(Cl)c1)c1ccn(-c2ccnc(NC3CCOC3)c2)c1` (stereo partly drawn) [Compound 188, N-((S)-1-(3-chlorophenyl)-2-hydroxyethyl)-1-(2-((tetrahydrofuran-3-yl)amino)pyridin-4-yl)-1H-pyrrole-3-carboxamide], the IC50 against ERK1 and against ERK2 was 100 to 500 nM throughout.
On to `O=C(NC(CO)c1ccccc1)c1ccn(-c2ccnc(NC3CCOC3)c2)c1` (stereo not shown) [Compound 189, N-(2-hydroxy-1-phenylethyl)-1-(2-((tetrahydrofuran-3-yl)amino)pyridin-4-yl)-1H-pyrrole-3-carboxamide], for which the results for the IC50 at ERK1 and at ERK2 were 100 to 500 nM and 500 to 2500 nM, respectively.
Taken in the same sequence, the figures for `Cc1cnc(NCC2CCCO2)nc1-n1ccc(C(=O)N[C@H](CO)c2cccc(Cl)c2)c1` (stereo partly drawn) [Compound 190, N-((S)-1-(3-chlorophenyl)-2-hydroxyethyl)-1-(5-methyl-2-(((tetrahydrofuran-2-yl)methyl)-amino)pyrimidin-4-yl)-1H-pyrrole-3-carboxamide] were less than 50 nM and 50 to 100 nM.
The matching figures for `Cc1cnc(NCc2cccnc2)cc1-n1ccc(C(=O)NC(CO)c2ccc(F)c(Cl)c2)c1` (stereo not shown) [Compound 193, N-(1-(3-chloro-4-fluorophenyl)-2-hydroxyethyl)-1-(5-methyl-2-((pyridin-3-ylmethyl)-amino)pyridin-4-yl)-1H-pyrrole-3-carboxamide]: 100 to 500 nM and 100 to 500 nM.
The matching figures for `Cc1cnc(Nc2ccc(F)c(C(=O)N(C)C)c2)nc1-n1ccc(C(=O)NC(CO)c2cccc(Cl)c2)c1` (stereo not shown) [Compound 194, N-(1-(3-chloro-phenyl)-2-hydroxyethyl)-1-(2-((3-(dimethyl-carbamoyl)-4-fluorophenyl)amino)-5-methyl-pyrimidin-4-yl)-1H-pyrrole-3-carboxamide]: less than 50 nM and no more than 50 nM.
As to `Cc1cnc(NC2CCCCC2)nc1-n1ccc(C(=O)NC(CO)c2cccc(Cl)c2)c1` (stereo not shown) [Compound 195, N-(1-(3-chlorophenyl)-2-hydroxyethyl)-1-(2-(cyclohexylamino)-5-methylpyrimidin-4-yl)-1H-pyrrole-3-carboxamide], the IC50 was less than 50 nM on ERK1 and no more than 50 nM at ERK2.
`CNC(=O)c1ccc(Nc2ncc(C)c(-n3ccc(C(=O)NC(CO)c4cccc(Cl)c4)c3)n2)cc1` (stereo not shown) [Compound 196, N-(1-(3-chloro-phenyl)-2-hydroxy-ethyl)-1-(5-methyl-2-((4-(methyl-carbamoyl)phenyl)amino)pyrimidin-4-yl)-1H-pyrrole-3-carboxamide]: the IC50 was less than 50 nM against ERK1 and no more than 50 nM at ERK2.
The matching figures for `CCC(C)Nc1ncc(C)c(-n2ccc(C(=O)N[C@H](CO)c3ccc(F)c(Cl)c3)c2)n1` (stereo partly drawn) [Compound 197, 1-(2-(sec-butylamino)-5-methylpyrimidin-4-yl)-N-((S)-1-(3-chloro-4-fluoro-phenyl)-2-hydroxy-ethyl)-1H-pyrrole-3-carboxamide]: less than 50 nM and no more than 50 nM.
Taken in the same sequence, the figures for `Cc1cnc(Nc2ccc3c(c2)CC(=O)N3)nc1-n1ccc(C(=O)NC(CO)c2cccc(Cl)c2)c1` (stereo not shown) [Compound 198, N-(1-(3-chloro-phenyl)-2-hydroxy-ethyl)-1-(5-methyl-2-((2-oxoindolin-5-yl)amino)pyrimidin-4-yl)-1H-pyrrole-3-carboxamide] were less than 50 nM and no more than 50 nM.
The matching figures for `Cc1cnc(NC2CCCN(C)C2)nc1-n1ccc(C(=O)NC(CO)c2cccc(Cl)c2)c1` (stereo not shown) [Compound 199, N-(1-(3-chloro-phenyl)-2-hydroxy-ethyl)-1-(5-methyl-2-((1-methyl-piperidin-3-yl)-amino)pyrimidin-4-yl)-1H-pyrrole-3-carboxamide]: less than 50 nM and no more than 50 nM.
For the molecule `Cc1cnc(NC2CCCCC2O)nc1-n1ccc(C(=O)NC(CO)c2ccc(F)c(Cl)c2)c1` (stereo not shown) [Compound 202, N-(1-(3-chloro-4-fluorophenyl)-2-hydroxyethyl)-1-(2-((2-hydroxy-cyclohexyl)amino)-5-methylpyrimidin-4-yl)-1H-pyrrole-3-carboxamide], the IC50 against ERK1 and against ERK2 was 50 to 100 nM each time.
As to `Cc1cnc(NC2(CO)CC2)nc1-n1ccc(C(=O)NC(CO)c2ccc(F)c(Cl)c2)c1` (stereo not shown) [Compound 203, N-(1-(3-chloro-4-fluorophenyl)-2-hydroxyethyl)-1-(2-((1-(hydroxy-methyl)cyclopropyl)amino)-5-methyl-pyrimidin-4-yl)-1H-pyrrole-3-carboxamide], the IC50 against ERK1 and against ERK2 was 100 to 500 nM in each case.
Take `Cc1cnc(N[C@H]2CCOC2)nc1-n1ccc(C(=O)NC(CO)c2ccc(F)cc2)c1` (stereo partly drawn) [Compound 204, N-(1-(4-fluoro-phenyl)-2-hydroxy-ethyl)-1-(5-methyl-2-(((S)-tetrahydro-furan-3-yl)amino)-pyrimidin-4-yl)-1H-pyrrole-3-carboxamide]: the IC50 against ERK1 and at ERK2 was 50 to 100 nM in each case.
On to `Cc1cnc(Nc2ccc(N3CCOCC3)cc2)nc1-n1ccc(C(=O)NC(CO)c2cccc(Cl)c2)c1` (stereo not shown) [Compound 205, N-(1-(3-chlorophenyl)-2-hydroxyethyl)-1-(5-methyl-2-((4-morpholinophenyl)amino)pyrimidin-4-yl)-1H-pyrrole-3-carboxamide], for which the IC50 against ERK1 is less than 50 nM; on ERK2 it was no more than 50 nM.
The matching figures for `NCC(NC(=O)c1ccn(-c2ccnc(Nc3ccc(F)cc3)c2)c1)c1ccccc1` (stereo not shown) [Compound 206, N-(2-amino-1-phenylethyl)-1-(2-((4-fluorophenyl)-amino)pyridin-4-yl)-1H-pyrrole-3-carboxamide]: less than 50 nM and no more than 50 nM.
As to `Cc1cccc([C@@H](CO)NC(=O)c2ccn(-c3nc(N[C@H]4CCOC4)ncc3C)c2)n1` [Compound 207, N-((S)-2-hydroxy-1-(6-methylpyridin-2-yl)ethyl)-1-(5-methyl-2-(((S)-tetrahydrofuran-3-yl)amino)pyrimidin-4-yl)-1H-pyrrole-3-carboxamide], the IC50 on ERK1 was less than 50 nM; on ERK2, no more than 50 nM.
